Source: patent publication US7829665B2 (priority 2005, dated 2010)

The compounds below were run against T1, full-length NS3/NS4A-2 (HCV NS3 protease) (Hepatitis C virus genotype 1a, UniProt P27958) (assay: NS3-NS4 protease assay / NS3 inhibition assay (RETS1 substrate, fluorescence kinetic read)). Details: recombinant E. coli or Baculovirus full-length NS3 with NS4A-2; read-out: NS3-NS4 IC50.
T1 construct: Recombinant E. coli or Baculovirus full-length NS3 was diluted to 3.33 μM with assay buffer; made in house; host or cells: E. coli or baculovirus (BV) expression system
T1 sequence (P27958 1027-1657): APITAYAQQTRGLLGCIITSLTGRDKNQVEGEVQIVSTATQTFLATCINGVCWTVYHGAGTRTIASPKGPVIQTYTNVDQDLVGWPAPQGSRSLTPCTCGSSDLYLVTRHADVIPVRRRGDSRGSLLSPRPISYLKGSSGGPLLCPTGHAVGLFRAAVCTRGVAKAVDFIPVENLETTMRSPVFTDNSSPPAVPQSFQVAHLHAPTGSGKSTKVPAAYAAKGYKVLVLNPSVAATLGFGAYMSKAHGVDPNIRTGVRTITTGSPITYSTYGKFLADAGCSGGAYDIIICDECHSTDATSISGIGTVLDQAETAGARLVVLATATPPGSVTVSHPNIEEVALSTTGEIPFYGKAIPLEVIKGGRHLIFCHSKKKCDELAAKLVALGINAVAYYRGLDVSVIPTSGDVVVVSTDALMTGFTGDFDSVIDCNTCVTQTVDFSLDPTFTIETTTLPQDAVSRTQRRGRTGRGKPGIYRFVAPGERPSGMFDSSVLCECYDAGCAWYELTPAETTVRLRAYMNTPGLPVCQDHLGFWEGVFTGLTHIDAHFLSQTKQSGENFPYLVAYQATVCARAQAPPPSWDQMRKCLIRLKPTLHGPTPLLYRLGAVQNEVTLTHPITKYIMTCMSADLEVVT
Format: biochemical
Experimental: NS3 complex formation with NS4A-2.
Recombinant E. coli or Baculovirus full-length NS3 was diluted to 3.33 μM with assay buffer and transferred material to an eppendorf tube and place in water bath in 4° C. refrigerator. The appropriate amount of NS4A-2 to 8.3 mM in assay buffer was added to equal the volume of NS3 in step 2.1.1 (conversion factor—3.8 mg/272 μL assay buffer). The material was transferred to an eppendorf tube and place in water bath in 4° C. refrigerator.
After equilibration to 4° C., equal volumes of NS3 and NS4A-2 solutions were combined in an eppendorf tube, mix gently with a manual pipettor, and incubate mixture for 15 minutes in the 4° C. water bath. Final concentrations in the mixture are 1.67 μM NS3, 4.15 mM NS4A-2 (2485-fold molar excess NS4A-2).
After 15 minutes at 4° C., the NS3/NS4A-2 eppendorf tube was removed and place it in a room temperature water bath for 10 minutes. NS3/NS4A-2 was alliquoted at appropriate volumes and store at −80° C. (E. coli NS3 run at 2 nM in assay, aliquot at 25 μL. BV NS3 run at 3 nM in assay, aliquot at 30 μL).
Sample compounds were dissolved to 10 mM in DMSO then diluted to 2.5 mM (1:4) in DMSO. Typically, compounds were added to an assay plate at 2.5 mM concentration, yielding upon dilution a starting concentration of 50 microM in the assay inhibition curve. Compounds were serial diluted in assay buffer to provide test solutions at lower concentrations.
The E. coli. NS3/NS4A-2 was diluted to 4 nM NS3 (1:417.5 of 1.67 μM stock−18 μL 1.67 μM stock+7497 μL assay buffer). The BV NS3/NS4A-2 was diluted to 6 nM NS3 (1:278.3 of 1.67 μM stock−24 μL 1.67 μM stock+6655 μL assay buffer). Using the manual multichannel pipettor, careful not to introduce bubbles into the plate, add 50 μL assay buffer to wells A01-H01 of a black Costar 96-well polypropylene storage plate.
Using the manual multichannel pipettor, careful not to introduce bubbles into the plate, add 50 μL of diluted NS3/NS4A-2 from step 2.2.6 to wells A02-H12 of plate in step 2.2.7. Using the manual multichannel pipettor, careful not to introduce bubbles into the plate, transfer 25 μL of the wells in drug dilution plate in step 2.2.5 to corresponding wells in assay plate in step 2.2.8. Change tips on multichannel pipettor for each row of compounds transferred. Using the manual multichannel pipettor, careful not to introduce bubbles into the plate, mix the wells from the assay plate in step 2.2.9 by aspirating and dispensing 35 μL of the 75 μL in each well five times. Change tips on multichannel pipettor for each row of wells mixed. Cover plate with a polystyrene plate lid and pre-incubate the plate from step 2.2.10 containing NS3 protease and sample compounds 10 minutes at room temperature. While plate from step 2.2.11 is pre-incubating, dilute RETS1 substrate in a 15 mL polypropylene centrifuge tube. Dilute RETS1 substrate to 8 μM (1:80.75 of 646 μM stock−65 μL 646 μM stock+5184 μL assay buffer).
After the plate in step is done pre-incubating, and using the manual multichannel, add 25 μL of substrate to all wells on the plate. Quickly mix the plate as in step 2.2.10, mixing 65 μL of the 100 μL in the wells.
Read the plate in kinetic mode on the Molecular Devices SpectraMax Gemini XS plate reader. Reader settings: Read time: 30 minutes, Interval: 36 seconds, Reads: 51, Excitation λ: 335 nm, Emission λ: 495 nm, cutoff: 475 nm, Automix: off, Calibrate: once, PMT: high, Reads/well: 6, Vmax pts: 21 or 28/51 depending on length of linearity of reaction
IC50 s are determined using a four parameter curve fit equation, and converted to Ki's using the following Km's: • Full-length E. coli NS3—2.03 μM • Full-length BV NS3—1.74 μM where Ki=IC50/(1+[S]/Km)) • Quantitation by ELISA of the selectable marker protein, Neomycin phosphotransferase II (NPTII) in the HCV Sub-Genomic Replicon, GS4.3
In the case of `O=C(N[C@H]1CCCCC/C=C\[C@@H]2C[C@@]2(C(=O)NS(=O)(=O)C2CC2)NC(=O)[C@@H]2CCCN2C1=O)OC1CCCC1` [Compound 312], the IC50 is reported as < 1 µM. `CC[C@@H]1C[C@H]2C(=O)N[C@]3(C(=O)O)C[C@H]3/C=C\CCCCC[C@H](NC(=O)OC3CCCC3)C(=O)N2C1` [Compound 313] was tested, and the IC50 was < 10 µM. With `O=C(N[C@H]1CCCCC/C=C\[C@@H]2C[C@@]2(C(=O)O)NC(=O)[C@@H]2CCCN2C1=O)C1CC1` [Compound 315] the IC50 was < 10 µM. With `CC(=O)N[C@H]1CCCCC/C=C\[C@@H]2C[C@@]2(C(=O)NS(=O)(=O)C2CC2)NC(=O)[C@@H]2CCCN2C1=O` [Compound 316] the IC50 was < 10 µM. For `CCN(C)S(=O)(=O)NC(=O)[C@@]12C[C@H]1/C=C\CCCCC[C@H](NC(=O)OC(C)(C)C)C(=O)N1CCC[C@H]1C(=O)N2` [Compound 400], the IC50 was < 10 µM. In the case of `CC(C)N(C)S(=O)(=O)NC(=O)[C@@]12C[C@H]1/C=C\CCCCC[C@H](NC(=O)OC(C)(C)C)C(=O)N1CCC[C@H]1C(=O)N2` [Compound 401], the IC50 is reported as < 10 µM. In the case of `CC(C)(C)OC(=O)N[C@H]1CCCCC/C=C\[C@@H]2C[C@@]2(C(=O)NS(=O)(=O)NCCc2ccccc2Cl)NC(=O)[C@@H]2CCCN2C1=O` [Compound 402], the IC50 is reported as > 10 µM. For `CC(C)(C)OC(=O)N[C@H]1CCCCC/C=C\[C@@H]2C[C@@]2(C(=O)NS(=O)(=O)NCCc2ccc(Cl)cc2)NC(=O)[C@@H]2CCCN2C1=O` [Compound 403], the IC50 was < 10 µM. For `CN(c1cccc(Cl)c1)S(=O)(=O)NC(=O)[C@@]12C[C@H]1/C=C\CCCCC[C@H](NC(=O)OC(C)(C)C)C(=O)N1CCC[C@H]1C(=O)N2` [Compound 404], the IC50 was < 10 µM. `CN(c1ccccc1Cl)S(=O)(=O)NC(=O)[C@@]12C[C@H]1/C=C\CCCCC[C@H](NC(=O)OC(C)(C)C)C(=O)N1CCC[C@H]1C(=O)N2` [Compound 405] was tested, and the IC50 was < 10 µM. In the case of `CC(C)(C)OC(=O)N[C@H]1CCCCC/C=C\[C@@H]2C[C@@]2(C(=O)NS(=O)(=O)Nc2cccnc2)NC(=O)[C@@H]2CCCN2C1=O` [Compound 406], the IC50 is reported as > 10 µM. In the case of `CC(C)(C)OC(=O)N[C@H]1CCCCC/C=C\[C@@H]2C[C@@]2(C(=O)NS(=O)(=O)Nc2ccncc2)NC(=O)[C@@H]2CCCN2C1=O` [Compound 407], the IC50 is reported as > 10 µM. `CC(C)(C)OC(=O)N[C@H]1CCCCC/C=C\[C@@H]2C[C@@]2(C(=O)NS(=O)(=O)N2CCc3ccccc3C2)NC(=O)[C@@H]2CCCN2C1=O` [Compound 408] was tested, and the IC50 was < 10 µM. In the case of `CC(C)(C)OC(=O)N[C@H]1CCCCC/C=C\[C@@H]2C[C@@]2(C(=O)NS(=O)(=O)N2Cc3ccccc3C2)NC(=O)[C@@H]2CCCN2C1=O` [Compound 409], the IC50 is reported as < 10 µM. `CC(C)(C)OC(=O)N[C@H]1CCCCC/C=C\[C@@H]2C[C@@]2(C(=O)NS(=O)(=O)Nc2ccc(Cl)cc2Cl)NC(=O)[C@@H]2CCCN2C1=O` [Compound 410] was tested, and the IC50 was > 10 µM. `CC(C)(C)OC(=O)N[C@H]1CCCCC/C=C\[C@@H]2C[C@@]2(C(=O)NS(=O)(=O)NCCc2cccc(Cl)c2)NC(=O)[C@@H]2CCCN2C1=O` [Compound 411] was tested, and the IC50 was > 10 µM. `C=CCN(C)S(=O)(=O)NC(=O)[C@@]12C[C@H]1/C=C\CCCCC[C@H](NC(=O)OC(C)(C)C)C(=O)N1CCC[C@H]1C(=O)N2` [Compound 412] was tested, and the IC50 was < 10 µM. `COc1ccc(CCNS(=O)(=O)NC(=O)[C@@]23C[C@H]2/C=C\CCCCC[C@H](NC(=O)OC(C)(C)C)C(=O)N2CCC[C@H]2C(=O)N3)cc1` [Compound 413] was tested, and the IC50 was > 10 µM. `COc1cccc(CCNS(=O)(=O)NC(=O)[C@@]23C[C@H]2/C=C\CCCCC[C@H](NC(=O)OC(C)(C)C)C(=O)N2CCC[C@H]2C(=O)N3)c1` [Compound 414] was tested, and the IC50 was > 10 µM. `COc1ccccc1CCNS(=O)(=O)NC(=O)[C@@]12C[C@H]1/C=C\CCCCC[C@H](NC(=O)OC(C)(C)C)C(=O)N1CCC[C@H]1C(=O)N2` [Compound 415] was tested, and the IC50 was > 10 µM. For `C[C@H](NS(=O)(=O)NC(=O)[C@@]12C[C@H]1/C=C\CCCCC[C@H](NC(=O)OC(C)(C)C)C(=O)N1CCC[C@H]1C(=O)N2)c1ccccc1` [Compound 416], the IC50 was < 10 µM. In the case of `CN(Cc1ccccc1)S(=O)(=O)NC(=O)[C@@]12C[C@H]1/C=C\CCCCC[C@H](NC(=O)OC(C)(C)C)C(=O)N1CCC[C@H]1C(=O)N2` [Compound 417], the IC50 is reported as < 10 µM. In the case of `CC(C)COC(=O)N[C@H]1CCCCC/C=C\[C@@H]2C[C@@]2(C(=O)NS(=O)(=O)Nc2ccc(Cl)cc2)NC(=O)[C@@H]2CCCN2C1=O` [Compound 419], the IC50 is reported as < 10 µM. For `O=C(N[C@H]1CCCCC/C=C\[C@@H]2C[C@@]2(C(=O)NS(=O)(=O)Nc2ccc(Cl)cc2)NC(=O)[C@@H]2CCCN2C1=O)OC1CCCC1` [Compound 420], the IC50 was > 10 µM. In the case of `CC(C)(C)OC(=O)N[C@H]1CCCCC/C=C\[C@@H]2C[C@@]2(C(=O)NS(=O)(=O)NCCc2ccc3ccccc3c2)NC(=O)[C@@H]2CCCN2C1=O` [Compound 421], the IC50 is reported as > 10 µM. With `CC(C)(C)OC(=O)N[C@H]1CCCCC/C=C\[C@@H]2C[C@@]2(C(=O)NS(=O)(=O)NCCc2cccc3ccccc23)NC(=O)[C@@H]2CCCN2C1=O` [Compound 422] the IC50 was > 10 µM. With `CC(C)(C)OC(=O)N[C@H]1CCCCC/C=C\[C@@H]2C[C@@]2(C(=O)NS(=O)(=O)NCCc2ccccn2)NC(=O)[C@@H]2CCCN2C1=O` [Compound 423] the IC50 was < 10 µM. `CC(C)(C)OC(=O)N[C@H]1CCCCC/C=C\[C@@H]2C[C@@]2(C(=O)NS(=O)(=O)NCCc2cccnc2)NC(=O)[C@@H]2CCCN2C1=O` [Compound 424] was tested, and the IC50 was > 10 µM. With `CC(C)(C)OC(=O)N[C@H]1CCCCC/C=C\[C@@H]2C[C@@]2(C(=O)NS(=O)(=O)NCc2ccccn2)NC(=O)[C@@H]2CCCN2C1=O` [Compound 425] the IC50 was > 10 µM. In the case of `CC(C)(C)OC(=O)N[C@H]1CCCCC/C=C\[C@@H]2C[C@@]2(C(=O)NS(=O)(=O)NCc2ccncc2)NC(=O)[C@@H]2CCCN2C1=O` [Compound 426], the IC50 is reported as > 10 µM. For `O=C(N[C@H]1CCCCC/C=C\[C@@H]2C[C@@]2(C(=O)NS(=O)(=O)Nc2ccc(Cl)cc2)NC(=O)[C@@H]2CCCN2C1=O)C1CCC1` [Compound 427], the IC50 was > 10 µM. `O=C(N[C@H]1CCCCC/C=C\[C@@H]2C[C@@]2(C(=O)NS(=O)(=O)Nc2ccc(Cl)cc2)NC(=O)[C@@H]2CCCN2C1=O)C1CC1` [Compound 428] was tested, and the IC50 was < 10 µM. For `CC[C@@H]1C[C@H]2C(=O)N[C@]3(C(=O)NS(=O)(=O)Nc4ccc(Cl)cc4)C[C@H]3/C=C\CCCCC[C@H](NC(=O)C3CC3)C(=O)N2C1` [Compound 429], the IC50 was < 10 µM. In the case of `CC(C)(C)OC(=O)N[C@H]1CCCCC/C=C\[C@@H]2C[C@@]2(C(=O)NCc2ccccn2)NC(=O)[C@@H]2CCCN2C1=O` [Compound 500], the IC50 is reported as > 10 µM. For `C[C@H](NC(=O)[C@@]12C[C@H]1/C=C\CCCCC[C@H](NC(=O)OC(C)(C)C)C(=O)N1CCC[C@H]1C(=O)N2)c1ccncc1` [Compound 501], the IC50 was > 10 µM. `CC(C)(C)OC(=O)N[C@H]1CCCCC/C=C\[C@@H]2C[C@@]2(C(=O)NCc2ccncc2)NC(=O)[C@@H]2CCCN2C1=O` [Compound 502] was tested, and the IC50 was > 10 µM. For `CC(C)(C)OC(=O)N[C@H]1CCCCC/C=C\[C@@H]2C[C@@]2(C(=O)NCC(O)(C(F)(F)F)C(F)(F)F)NC(=O)[C@@H]2CCCN2C1=O` [Compound 503], the IC50 was > 10 µM. `CC(C)(C)OC(=O)N[C@H]1CCCCC/C=C\[C@@H]2C[C@@]2(C(=O)NCCN2CCOCC2)NC(=O)[C@@H]2C[C@@H](OC(=O)N3Cc4cccc(F)c4C3)CN2C1=O` [Compound 607] was tested, and the IC50 was > 10 µM.
